Data set [1] has as its system Leishmania. The conditions noted are these: at 30 µM.
Description: Inhibition of Leishmania CRK3/CYC6 using histone H1/[gamma33-P]ATP as substrate at 30 uM after 30 mins relative to control
The nature of data set [2]: Cytotoxicity against human BJ cells assessed as cell viability at 30 uM after 72 hrs by fluorescence assay relative to control.
A short description of data set [3]: Inhibition of Leishmania CRK3/CYC6 using histone H1/[gamma33-P]ATP as substrate after 30 mins.
Data set [4] can be described thus: Leshmanicidal activity against promastigote stage of Leishmania turanica MRHO/MN/08/BZ18 after 72 hrs by alamar blue staining-based fluorescence assay. In kind it is functional. (The colour change of resazurin is a common sign of viable cells or microbes.)
Data set [5] has as its system Leishmania donovani. Briefly: Leshmanicidal activity against promastigote stage of Leishmania donovani MHOM/SD/1962/1S-c12d […] after 72 hrs by alamar blue staining-based fluorescence assay. In kind it is functional, organism-based.
Data set [6] relates to Leishmania major. Briefly: Leshmanicidal activity against promastigote stage of Leishmania major MHOM/IL/2003/LRC-L1025 […] after 72 hrs by alamar blue staining-based fluorescence assay. It is filed as functional, organism-based. Conditions: MHOM/IL/2003/LRC-L1025, 72 h.

Usually inhibition stands for the relative decrease from the control value, in per cent. The low end stands for a weak effect, the high end for a strong effect. One may read the viability as a read-out of living cells in per cent, often relative to untreated cells. The molecule `CC(C)n1cnc2c(NCc3ccccc3O)nc(N3CCN(CC#N)CC3)nc21` had an inhibition in data set [1] of 71.7%. Besides, the viability at 72 h, 30 µM in data set [2] (BJ cells) worked out at 91.8%.
The molecule `CC(C)n1cnc2c(NCc3ccccc3)nc(NCCCN)nc21` gave an inhibition in data set [1] of 46.2%. Also, the viability at 72 h, 30 µM in data set [2] (BJ cells) amounted to 100%.
The like results for `CC[C@H](CO)Nc1nc(NCc2ccccc2)c2ncn(C(C)C)c2n1` [SELICICLIB] were, in that order, 38.6% and 106%.
As to `CC(C)n1cnc2c(NCc3ccccc3O)nc(N3CCNCC3)nc21`, the inhibition in data set [1] stood at 55.6%. Further, in data set [2] (BJ cells), the viability at 72 h, 30 µM is 127%.
The like results for `CC[C@H](CO)Nc1nc(Nc2ccc(S(=O)(=O)Nc3nc(C)cc(C)n3)cc2)c2ncn(C(C)C)c2n1` were, in that order, 1.2% and 105%.
The like results for `CC[C@H](CO)Nc1nc(NCc2cccc(O)c2)c2ncn(C(C)C)c2n1` were, in that order, 36.4% and 85.6%.
Regarding `CC(C)n1cnc2c(NCc3ccccc3)nc(NCCOCCO)nc21`, in data set [1], the inhibition worked out at 56.5%. In data set [2] (BJ cells), the viability at 72 h, 30 µM was 69.9%.
Taken in the same sequence, the figures for `CC(C)n1cnc2c(NCc3ccccc3)nc(NCCN)nc21` were 57.5% and 95.2%.
The molecule `CCOC(=O)c1ccc(Nc2nc(N[C@H](CC)CO)nc3c2ncn3C(C)C)cc1` had an inhibition in data set [1] of 5.6%. The viability at 72 h, 30 µM in data set [2] (BJ cells) is 70.1%.
The term IC50 denotes the concentration that inhibits the measured activity by half. Low values mean greater potency, high ones weaker potency. Regarding `CC[C@H](CO)Nc1nc(Nc2ccc(S(N)(=O)=O)cc2)c2ncn(C(C)C)c2n1`, the inhibition in data set [1] came out at 2.2%. In addition, the viability at 72 h, 30 µM in data set [2] (BJ cells) amounted to 76.7%. Also, the half-maximal inhibitory concentration (IC50) in data set [3] is 0.214 µM; in data set [4], greater than 50 µM.
In data set [1], `CC(C)n1cnc2c(NCc3ccccc3)nc(NCCCO)nc21` [BOHEMINE] showed an inhibition of 49.2%. Besides, in data set [2] (bj), the viability at 72 h, 30 µM turned out to be 120%.
Regarding `CC[C@H](CO)Nc1nc(NCc2ccc(OC)cc2O)c2ncn(C(C)C)c2n1`, in data set [1], the inhibition was found to be 53.1%. The viability at 72 h, 30 µM in data set [2] (BJ cells) was 82.3%.
Taken in the same sequence, the figures for `CC(C)n1cnc2c(NCc3ccccc3O)nc(NCc3ccccc3O)nc21` were 37.8% and 97.5%.
In turn, `COc1cccc(CNc2nc(N[C@H]3CC[C@H](N)CC3)nc3c2ncn3C(C)C)c1O` showed an inhibition in data set [1] of 10.8%. Moreover, the viability at 72 h, 30 µM in data set [2] (BJ cells) amounted to 87.9%.
Taken in the same sequence, the figures for `CC[C@H](CO)Nc1nc(NC(CO)c2ccccc2)c2ncn(C(C)C)c2n1` (stereo not given in full) were 33.5% and 102%.
Molecule `CC(C)n1cnc2c(NCc3ccc(O)cc3)nc(NCCCO)nc21` showed an inhibition in data set [1] of 53.3%. In addition, the viability at 72 h, 30 µM in data set [2] (BJ cells) was 84.9%.
`CC(C)n1cnc2c(NCc3ccccc3)nc(NCCO)nc21` displayed an inhibition in data set [1] of 66.6%. In addition, the viability at 72 h, 30 µM in data set [2] (BJ cells) is 74.2%.
In data set [1], `CC[C@H](CO)Nc1nc(NCc2ccc(Br)cc2)c2ncn(C(C)C)c2n1` registered an inhibition of 10%. The viability at 72 h, 30 µM in data set [2] (BJ cells) was 92.3%. Further, the IC50 in data set [4] was 20.1 µM; in data set [5], 16.8 µM; in data set [6], 19.4 µM.
Regarding `CC[C@H](CO)Nc1nc(NCc2ccccc2N)c2ncn(C(C)C)c2n1`, the inhibition in data set [1] was 9.8%. Also, the viability at 72 h, 30 µM in data set [2] (BJ cells) amounted to 95.7%.
The like results for `CC(C)n1cnc2c(NCc3ccccc3O)nc(NCCCO)nc21` were, in that order, 10.5% and 85%.
The like results for `CC(C)n1cnc2c(NCc3ccccc3)nc(N)nc21` were, in that order, 87.1% and 72.2%.
As for `CC[C@H](CO)Nc1nc(Nc2ccc(S(=O)(=O)NC(=N)N)cc2)c2ncn(C(C)C)c2n1`, in data set [1], the inhibition came out at 0.3%. Also, the viability at 72 h, 30 µM in data set [2] (BJ cells) was 84.4%. The IC50 in data set [3] was 0.115 µM; in data set [4] it was greater than 50 µM.
In turn, `CC[C@H](CO)Nc1nc(NCc2cc(C)ccc2O)c2ncn(C(C)C)c2n1` yielded an inhibition in data set [1] of 0.4%. In addition, the viability at 72 h, 30 µM in data set [2] (BJ cells) is 70.4%. The half-maximal inhibitory concentration (IC50) in data set [3] turned out to be 0.162 µM; in data set [4] it was 11.8 µM; in data set [5], 2.2 µM; in data set [6], 2.3 µM.
For the molecule `CC(C)n1cnc2c(NCc3ccccc3)nc(NC[C@H](C)O)nc21`, in data set [1], the inhibition came to 53.9%. Further, the viability at 72 h, 30 µM in data set [2] (BJ cells) was found to be 94.7%.
In data set [1], `CC[C@H](CO)Nc1nc(NCc2ccc(O)cc2)c2ncn(C(C)C)c2n1` yielded an inhibition of 21.3%. Further, the viability at 72 h, 30 µM in data set [2] (BJ cells) is 91.6%.
With `CC[C@H](CO)Nc1nc(NCc2ccccc2O)c2ncn(C(C)C)c2n1` [OLOMOUCINE II], the inhibition in data set [1] came out at 1.8%. Besides, the viability at 72 h, 30 µM in data set [2] (BJ cells) came out at 79.8%. In addition, the IC50 in data set [3] worked out at 0.59 µM; in data set [4], 11.9 µM; in data set [5] it was 62.4 µM; in data set [6] it was 47.2 µM.
Consider `CC[C@H](CO)Nc1nc(NCc2cccc(C)c2O)c2ncn(C(C)C)c2n1`, for which, in data set [1], the inhibition came to 3.3%. In addition, the viability at 72 h, 30 µM in data set [2] (BJ cells) worked out at 82.9%. For the same molecule, the IC50 in data set [3] amounted to 1.65 µM; in data set [4] it was 23 µM; in data set [5], 12.4 µM; in data set [6], 19.8 µM.
In turn, `COc1cccc(CNc2nc(N[C@@H]3CCCC[C@H]3N)nc3c2ncn3C(C)C)c1O` came in with an inhibition in data set [1] of 33.6%. Besides, in data set [2] (BJ cells), the viability at 72 h, 30 µM came to 87.4%.
In the case of `CC(C)n1cnc2c(NCc3ccccc3O)nc(N[C@H]3CC[C@H](N)CC3)nc21`, in data set [1], the inhibition was found to be 12.2%. Besides, the viability at 72 h, 30 µM in data set [2] (BJ cells) stood at 90.4%.
Consider `CC[C@H](CO)Nc1nc(NCc2cccc(O)c2O)c2ncn(C(C)C)c2n1`, for which the inhibition in data set [1] was 2.6%. For the same molecule, the viability at 72 h, 30 µM in data set [2] (BJ cells) was found to be 80.1%. For the same molecule, the results for the IC50 in data set [3] and in data set [4] were 0.314 µM and greater than 50 µM, respectively.
`CC(C)n1cnc2c(NCc3ccccc3)nc(N(CCO)CCO)nc21` yielded an inhibition in data set [1] of 47.1%. In data set [2] (BJ cells), the viability at 72 h, 30 µM is 133%.
Turning to `CC[C@H](CO)Nc1nc(NCc2cc(OC)c(O)c(OC)c2)c2ncn(C(C)C)c2n1`, the inhibition in data set [1] worked out at 8.3%. In data set [2] (BJ cells), the viability at 72 h, 30 µM is 103%.
In turn, `CC(C)n1cnc2c(NCc3ccccc3)nc(NC[C@H](O)CN)nc21` came in with an inhibition in data set [1] of 43.2%. Besides, in data set [2] (BJ cells), the viability at 72 h, 30 µM was found to be 74.5%.
Consider `CC[C@H](CO)Nc1nc(NCc2cc(O)cc(O)c2)c2ncn(C(C)C)c2n1`, for which the inhibition in data set [1] came out at 15.9%. For the same molecule, the viability at 72 h, 30 µM in data set [2] (BJ cells) amounted to 83.9%.
Taken in the same sequence, the figures for `CC(C)n1cnc2c(NCc3ccccc3O)nc(N[C@@H]3CCCC[C@H]3N)nc21` were 29.4% and 98.7%.
Consider `CC[C@H](CO)Nc1nc(NCc2cc(O)ccc2O)c2ncn(C(C)C)c2n1`, for which the inhibition in data set [1] came out at 1.5%. In data set [2] (BJ cells), the viability at 72 h, 30 µM worked out at 97.7%. For the same molecule, the IC50 in data set [3] is 0.384 µM; in data set [4], greater than 50 µM.
`CC(C)n1cnc2c(NCc3ccccc3)nc(NCCCCCC#N)nc21` gave an inhibition in data set [1] of 49%. Moreover, the viability at 72 h, 30 µM in data set [2] (BJ cells) was 77.8%.
The like results for `CC(C)n1cnc2c(NCc3cccc(O)c3)nc(NCCCO)nc21` were, in that order, 64.6% and 74.6%.
`CC[C@H](CO)Nc1nc(NCc2cccc(OC)c2O)c2ncn(C(C)C)c2n1` registered an inhibition in data set [1] of 2%. Moreover, the viability at 72 h, 30 µM in data set [2] (BJ cells) came out at 89%. In addition, the IC50 was found to be 0.641 µM in data set [3], 35.4 µM in data set [4], 95.9 µM in data set [5] and 98.5 µM in data set [6].

Values taken from ChEMBL document CHEMBL3421618, “2,6,9-Trisubstituted purines as CRK3 kinase inhibitors with antileishmanial activity in vitro” (Bioorg Med Chem Lett, 2015).
